Measurements published in patent publication US11840706B2, “Composition and method for generating a desired cell type and/or tissue type from hair follicular stem cells” (priority 2013, dated 2023).
Entries after “also recorded” stand apart in the source; their conditions may differ.

Tested on: keratinocytes
Experiment: Effect of vanadium compounds on proliferation of keratinocytes (hair follicle culture, cell count)
Format: cell-based
Details: 14 days culture; for amount of proliferated keratinocytes relative to the control situation: 1 mg/ml in basic SFK growth medium, 31° C., control = SFK medium lacking a vanadium compound
Method: Method: Hair follicles were transferred to a 24-well culture disk containing dSFK with 500 mg/ml penicillin (Life Technologies B.V. Breda, The Netherlands) and 0.25 μg/ml streptomycin (Life Technologies B.V. Breda, The Netherlands), and placed for 14 days in a culture medium at 31° C. in a humidified atmosphere containing 5% CO2. Three different culture medium were used: • Treatment group oxovanadium (OVAN): The culture medium is a composition comprising a basic SFK growth serum (purchased from the supplier SFK, Enschede The Netherlands) supplemented with either 1 mg/ml of OVAN. • Treatment group bis (maltolato) oxovanadium (BMOV): The culture medium is a composition comprising a basic SFK growth serum (purchased from the supplier SFK, Enschede The Netherlands) supplemented with either 1 mg/ml of BMOV. • Control group: The control situation consists of a composition comprising the SFK basic growth serum but without the vanadium compounds (i.e. OVAN or BMOV).
The respective culture media were carefully removed every three days and replaced by fresh culture media. The cells remained attached to the hair follicles during this culture period. After 14 days the culture medium was removed and replaced by a 0.5 mg/ml trypsin, 0.2 mg/ml EDTA (ethylene diaminetetraacetic acid) solution (Life Technologies B.V. Breda, The Netherlands), and incubated for 5 minutes at 37° C. in this medium. After this incubation period clusters of cells were released from the hair follicles. These were harvested by centrifugation at 300 g at 4° C. for 5 minutes in an Eppendorf 5804R Centrifuge (VWR International, The Netherlands). Number of cells were counted and expressed as amount of proliferated cells per ml of culture medium.

Compound	proliferation of keratinocytes, BMOV compared with OVAN (1 mg/ml each)	amount of proliferated keratinocytes relative to the control situation
Cc1occc(=O)c1[O-].Cc1occc(=O)c1[O-].[O]=[V+2] [BMOV, bis(maltolato) oxovanadium]	greater number of proliferated cells relative to treatment with OVAN; also recorded: more potent than OVAN	enhanced proliferation; also recorded: significantly increased
oxovanadium	–	enhanced proliferation; also recorded: significantly increased
